# Measured values taken from publication PMC10979003, “Development and crystal structures of a potent second-generation dual degrader of BCL-2 and BCL-xL” (Nature Communications, 2024).
# Key:
# Type in all cases: cell-based
# [1] = biological target: T1, BCL-2 (Homo sapiens, UniProt P10415); test: Immunoblot degradation of BCL-2 in Jurkat cells; details: for DC50: 16 h treatment, immunoblot
# T1 construct: endogenous in cells; host or cells: Jurkat (ATCC TIB-152)
# Method: The data are presented as mean ± s.d. from three replicate cell cultures in a representative experiment for Jurkat cells. h Left, WH244 induces polyubiquitination of WT, K22R BCL-2 and to some extent K17R but not K17/22R BCL-2 in 293T cells. 293T cells were co-transfected as indicated with Flag-BCL−2 WT or mutants and HA-tagged ubiquitin (HA-Ub) plasmids. After 36 h, cells were pretreated with MG132 (10 µM) for 2 h and then treated with or without WH244 (1 μM) for 5 h. The Flag-tagged proteins were immunoprecipitated (IP) and immunoblotted with HA or Flag antibody. Right, The input blot for this assay. Data are a representative of two independent experiments. Source data are provided as Source Data file.
# Cells were collected, washed once with ice-cold phosphate-buffered saline, pH 7.2 (PBS, cat. no. 20012027; Thermo Fisher Scientific) and lysed in RIPA lysis buffer (Cat. No. BP-115DG, Boston Bio Products, Ashland, MA, USA) supplemented with protease and phosphatase inhibitor cocktails (Cat. No. PPC1010, Sigma-Aldrich, St. Louis, MO, USA) through sonication. The samples were centrifuged at 15,000 × g for 5 min and the supernatants were transferred into a new tube. The protein concentration in the supernatants was determined using the Pierce BCA protein Assay kit (cat. no. 23225, Thermo Fisher Scientific). The protein concentration was normalized, and the samples were reduced in 4× Laemmli’s SDS-sample buffer (cat. no. BP-110R, Boston Bio Products) and denatured at 95 °C for 5 min. An equal amount of protein samples (20–40 μg per lane) were resolved using precast 4–20% Tris-glycine gels (Mini-PROTEAN TGX, cat. no. 456–1094, Bio-Rad), and resolved proteins were transferred onto 0.2-μm pore size polyvinylidene difluoride (PVDF) blotting membranes (cat. no. LC2002, Thermo Fisher Scientific) using mini trans-blot electrophoretic transfer cell (Bio-Rad). The membranes were blocked with non-fat dry milk (5% wt/vol) in 1×Tris- buffered saline-Tween-20 (TBST) for 1 h at room temperature, and were subsequently probed with primary antibodies at a pre-determined optimal concentration in non-fat dry milk (5% wt/vol in TBST) overnight at 4 °C. The membranes were washed three times (15 min each) in TBST and then incubated with horse radish peroxidase (HRP)-conjugated secondary antibodies for 1 h at room temperature. Following sufficient washing with TBST, the membranes were exposed with ECL Western Blotting Substrate (Bio-Rad), and the signal was detected using the ChemiDoc MP Imaging System (Bio-Rad) and quantified using the ImageJ (v1.53a) software from NIH. Antibodies were purchased from Cell Signaling Technologies (CST) and the dilutions are as follows: BCL-xL (Cat. No. 2762S, 1:1000) and BCL-2 (Cat. No. 2870S, 1:1000). β-actin antibody was purchased from MP Biomedicals (Cat. No. 8691001, 1:20,000).
# [2] = biological target: T2, HiBiT-BCL-xL (Homo sapiens, UniProt Q07817); test: HiBiT degradation assay, HiBiT knock-in BCL-xL HeLa cells
# T2 construct: endogenous in cells; host or cells: HeLa (ATCC CCL-2), CRISPR-Cas9 HiBiT knock-in clone
# Method: (§1) The Alt-R CRISPR RNA (crRNA):Alt-R trans-activating crRNA (tracrRNA) duplexes for targeting BCL-xL or BCL-2 were prepared by mixing 0.5 nmol crRNA and 0.5 nmol tracrRNA in 25 μL of Nuclease-Free Duplex Buffer (Integrated DNA Technologies, IDT) by incubation at 95 °C for 5 min and cooling to RT. Single-stranded ultramer DNA oligonucleotides (ssODN) (IDT) were used as the homology directed repair (HDR) donor templates. The sequences of gRNAs and ssODN templates are listed in Supplementary Table 2. Ribonucleoprotein (RNP) complexes with recombinant Streptococcus pyogenes Cas9 protein (IDT) and crRNA:tracrRNA duplex were assembled by incubating 100 pmol of Cas9 and 120 pmol of gRNA for 10–20 min at room temperature. HeLa (2 × 10^5) cells were resuspended in 10 μL of Neon^TM transfection system buffer R from the Neon^TM transfection system 10 mL kit (Thermo Fisher), and the RNP complex along with 100 pmol ssODN template were electroporated into HeLa cells with the Neon^TM transfection system (Thermo Fisher). After electroporation, HeLa cells were transferred to a 12-well plate for culturing. Edited pooled cells were analyzed for HiBiT insertion by assaying for luminescence using Nano-Glo® HiBiT lytic detection system (Cat #N3040, Promega) in a Biotek’s Synergy Neo2 multimode plate reader (Biotek) 48–72 h after electroporation and single clones were selected by serial dilution.
# (§2) HeLa HiBiT-BCL-xL and HeLa HiBiT-BCL-2 cells (2 × 10^4/well in 80 μL DMEM) were seeded into white 96-well tissue culture plates and incubated overnight at 37 °C, 5% CO2. For dose curve testing, the following day, serial diluted compounds were added into the medium and then plates were incubated at 37 °C, 5% CO2, for 6 h. For time course testing, in the following day, compounds with indicated concentrations were added into the medium at different time points. After treatment, the luminescence signals were measured using Nano-Glo® HiBiT lytic detection system (Cat #N3040, Promega) in a Biotek’s Synergy Neo2 multimode plate reader (Biotek).
# [3] = biological target: T3, HiBiT-BCL-2 (Homo sapiens, UniProt P10415); test: HiBiT degradation assay, HiBiT knock-in BCL-2 HeLa cells; details: for Time to degrade 50% of BCL-2: 100 nM compound
# T3 construct: endogenous in cells; host or cells: HeLa (ATCC CCL-2), CRISPR-Cas9 HiBiT knock-in clone
# Method: as §1, §2
# T2 sequence (Q07817 whole entry): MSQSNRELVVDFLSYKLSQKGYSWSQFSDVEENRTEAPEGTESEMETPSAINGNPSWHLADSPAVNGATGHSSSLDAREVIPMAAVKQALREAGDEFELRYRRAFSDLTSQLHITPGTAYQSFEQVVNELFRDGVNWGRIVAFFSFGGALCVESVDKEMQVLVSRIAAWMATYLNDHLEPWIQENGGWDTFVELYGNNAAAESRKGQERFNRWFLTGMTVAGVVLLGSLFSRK
# T1 sequence (P10415 whole entry): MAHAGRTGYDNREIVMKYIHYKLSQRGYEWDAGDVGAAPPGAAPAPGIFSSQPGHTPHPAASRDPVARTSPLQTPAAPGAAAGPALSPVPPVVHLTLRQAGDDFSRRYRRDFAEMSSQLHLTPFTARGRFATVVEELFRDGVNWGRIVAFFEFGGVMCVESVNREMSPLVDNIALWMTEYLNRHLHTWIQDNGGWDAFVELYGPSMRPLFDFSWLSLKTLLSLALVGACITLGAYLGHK
# T3 sequence (P10415 whole entry): as above
SMILES,DC50 ([1]; Jurkat cells),Time to degrade 50% of BCL-xL ([2]; 10 nM compound),Time to degrade 50% of BCL-xL ([2]; 100 nM compound),Time to degrade 50% of BCL-2 [3],"Earliest time at which BCL-2 degradation is seen ([1]; 0.1 μM WH244, Jurkat cells)","Time to nearly complete degradation of BCL-2 ([1]; 0.1 μM WH244, Jurkat cells)","Time for BCL-2 level to recover to pretreatment level after removal of degrader ([1]; 0.1 μM WH244 for 16 h, then fresh medium, Jurkat cells)","DC50 fold better than 753b (BCL-2) ([1]; Jurkat cells, 16 h)",Potency for inducing degradation of BCL-xL (comparison) ([2]; 6 h treatment),Potency for inducing degradation of BCL-2 (comparison) ([3]; 6 h treatment)
Cc1ncsc1-c1ccc(C(C)NC(=O)C2CC(O)CN2C(=O)C(NC(=O)CCCCCCC(=O)N2CCN(CC3(C)CCC(c4ccc(Cl)cc4)=C(CN4CCN(c5ccc(C(=O)NS(=O)(=O)c6ccc(NC(CCN7CCOCC7)CSc7ccccc7)c(S(=O)(=O)C(F)(F)F)c6)cc5)CC4)C3)CC2)C(C)(C)C)cc1 (centres unmarked) [753b],50 nM,> 480 min,~ 84 min,> 480 min,,,,,,
Cc1ncsc1-c1ccc([C@H](C)NC(=O)[C@@H]2C[C@@H](O)CN2C(=O)[C@@H](NC(=O)CN2CCN(CC(=O)N3CCN(C[C@]4(C)CCC(c5ccc(Cl)cc5)=C(CN5CCN(c6ccc(C(=O)NS(=O)(=O)c7ccc(N[C@H](CCN8C[C@@H]9C[C@H]8CO9)CSc8ccccc8)c(S(=O)(=O)C(F)(F)F)c7)cc6)CC5)C4)CC3)CC2)C(C)(C)C)cc1 [WH244],7.4 nM,~ 219 min,~ 45 min,about 250 min,1 h,6 h,24 to 48 h,~6.8 fold,more potent than 753b,more potent than 753b
